According to article PMC7259758 (PLoS ONE, 2020):
Where two headings read alike, the source gives them in different places.

Assays:
[1] = test system: CLK1; set-up: method as in PMID 29191878; conditions: chemoproteomic analysis; read-out: affinity for CLK1 (IC50); cited from earlier work
[2] = test system: triple-exon skipping of MDM2 pre-mRNA in SK-MEL-2/Luc-MDM2 cells; test: TESLR (Triple Exon Skipping Luciferase Reporter) dose response; conditions: for IC50: Homo sapiens, SK-MEL-2, 4 h; for TESLR Maximum fold change: 4 hours
Description: SK-MEL-2/MDM2-Luc stable cells were cultured in MEM medium with Earle's salts and L-glutamine containing 1 mM sodium pyruvate, 10% FCS and 10 mM Hepes and plated at a density of 10,000/well in 96-well plates and incubated overnight at 37°C in 5% CO2. The following day, cells were treated with serial dilutions of compounds for 4 hrs, ONE-Glo reagents (Promega) were added to measure the luciferase activity on an EnVision plate reader. SD6 and 0.5% DMSO were used as positive and negative controls, respectively. Relative luminescent units were plotted against corresponding drug concentrations and fitted with a standard four parameter sigmoidal curve with GraphPad Prism.
The TESLR assay in SK-MEL-2/Luc-MDM2 cells with 4 hour treatment. SK-MEL-2/Luc-MDM2 stable cells were plated at a density of 20,000 cells/well in 96-well plates and incubated overnight at 37°C in 5% CO2. The following day, cells were treated with either 0.5% DMSO or serial dilution of hits identified from the library screen in 0.5% DMSO for 4 hours. ONE-Glo™ EX reagent (Promega) was added to measure the luciferase activity using an EnVision plate reader. Relative luminescent units were plotted against corresponding drug concentrations and fitted with a standard four parameter sigmoidal curve with GraphPad Prism.
SK-MEL-2/Luc-MDM2 stable cells were plated at a density of 20,000 cells/well in 96-well plates and incubated overnight at 37°C in 5% CO2. The following day, cells were treated with serial dilutions of the indicated compounds for 4 hours and ONE-Glo™ EX reagents (Promega) were added to measure the luciferase activity.

[3] = target: T1, SF3B1 (Homo sapiens, UniProt O75533+Q7RTV0); test: Competitive antagonist assay (TESLR in the presence of SD6 or hit compound); type: cell-based; conditions: 1 h pre-treatment with analog, then 4 μM SD6 for another 4 hours; read-out: IC50 for antagonism of SD6 activity in the TESLR assay
T1 construct: endogenous in cells
Description: SK-MEL-2/Luc-MDM2 stable cells were plated at a density of 20,000 cells/well in 96-well plates and incubated overnight at 37°C in 5% CO2.[27, 28] The following day, cells were treated with 14 analogs using serial dilution for one hour. The list of compounds screened as potential TESLR antagonists are show in SI file. After one-hour pre-treatment, 4 μM of SD6 were added to the pre-treated cells for another 4 hours. Either 0.5% DMSO or serial dilutions of SD6 were used to treat cells for 4 hours as controls. At the end of incubation time, ONE-Glo™ EX reagents (Promega) were added to measure the luciferase activity. […]
Fig 6 Competitive antagonist assay. (Left Panel) The assay that identified two antagonists of SD6 activity in the TESLR screen, which are useful for the determination of SF3B1 binding. Relative luminescent units were plotted against corresponding drug concentrations and fitted with a standard four parameter sigmoidal curve with GraphPad Prism. (Right Panel) The structures of the antagonists and SD6. See SI for chemistry details.
. SK-MEL-2/Luc-MDM2 stable cells were plated at a density of 20000/well in 96-well plates and incubated overnight at 37°C in 5% CO2. […]. After one-hour pre-treatment, serial dilutions of the sudemycinol C were added to the pre-treated cells for another 4 hours. […]. At the end of incubation time, ONE-Glo™ EX reagents (Promega) were added to measure the luciferase activity. […]. DR: dose response.

[4] = SK-MEL-2/Luc-MDM2 cells, luciferase activity

Row | SMILES | TESLR Maximum fold change [2, 4] | IC50 [3] [µM] | also measured
1 | CC(=O)c1c(C)c2cnc(Nc3ccc(N4CCNCC4)cn3)nc2n(C2CCCC2)c1=O [palbociclib] | 2.92 |  | IC50 [1]: 0.276 µM; IC50 ([2]; read-out: TESLR IC50 (as printed in Fig 5)): ~291 µM; IC50 ([2]; read-out: TESLR IC50 in inducing triple exon skipping): 10 to 300 µM
2 | CC(C=CC1CC2(CO2)CC(C)(C)O1)=CCC1CCC(NC(=O)C=CC(C)O)CC1 (centres unmarked) [Sudemycinol C, sudemycinol C] |  | 0.97 | 
3 | CC(C=CC1CC2(CO2)CC(C)(C)O1)=CCC1OCC(NC(=O)C=CC(C)O)CO1 (centres unmarked) [Sudemycinol E, sudemycinol E] |  | 16.1 | 
4 | COc1ncc2cc(C(=O)Nc3cc(C(=O)NCc4cccc(Cl)c4)ccc3Cl)c(=O)[nH]c2n1 [Mirk-IN-1] | 30.7 |  | EC50 ([2]; read-out: TESLR EC50, SK-MEL-2/Luc-MDM2 cells, 4 hour treatment, luciferase activity): 15 µM
